Assay results: patent publication US20250255304A1, “HIGHLY TRA[…] CONTROLLING COMPOSITION” (ZM Crop Protection Corporation, priority 2022, published 2025)

Columns and labels:
Assay type in all cases: in vivo
[1] = tested on: Coptotermes formosanus Shiraki; assay: Test Example 3: extirpation test with dust formulation using simulated termite trails; conditions: active ingredient concentration 0.5%
[2] = tested on: Coptotermes formosanus Shiraki; assay: Test Example 2: secondary transmission treatment effect; conditions: Table 5, dicloromezotiaz 0.023%, fipronil 0.03%, imidacloprid 0.10%, chlorantraniliprole 0.05% solution in soil
Method: (§1) A test agent solution containing 0.023 parts of dicloromezotiaz was prepared by adding 99.875 parts of water to 0.125 parts of the aqueous suspension composition shown in Formulation Example 1. As comparative examples, four types of commercially available neonicotinoid termite controlling agents and four types of slow-acting termite controlling agents shown in Table 2 were diluted with water at practical concentrations to prepare test agent solutions. The “agent concentration (%)” indicates the concentration of the active ingredient contained in each of the composition of the present invention and the termite controlling agents and the “test agent solution concentration (%)” indicates the concentration of the active ingredient in each of the prepared test agent solutions.
(§2) After 1.2 g of each of the test agent solutions of the example and the comparative examples diluted to a predetermined concentration and prepared was added to 4.8 g of soil, 6 g of the mixed soil was spread in a glass petri dish having a diameter of 50 mm and ten workers of Coptotermes formosanus Shiraki were released into the petri dish and exposed to the agent solution for 4 hours.

[3] = tested on: Coptotermes formosanus Shiraki; assay: Test Example 2: primary transmission treatment effect; conditions: Table 3, dicloromezotiaz 0.023%, fipronil 0.03%, imidacloprid 0.10%, chlorantraniliprole 0.05% solution in soil
Method: as §1, §2

[4] = tested on: Coptotermes formosanus Shiraki; assay: Test Example 1: effect of agent on gypsum treated with test agent solution; conditions: dicloromezotiaz 0.023%, imidacloprid 0.1%, fipronil 0.03% test agent solution on gypsum
Method: A test agent solution containing 0.023 parts of dicloromezotiaz was prepared by adding 99.875 parts of water to 0.125 parts of the aqueous suspension composition shown in Formulation Example 1.
In a comparative example, an aqueous suspension composition prepared by adding an agent solution, wherein 99 parts of water was added to 1 part of a flowable containing 10.0 parts of imidacloprid and which contained 0.1 parts of imidacloprid and a drug solution, wherein 299 parts of water was added to 1 part of a flowable containing 9.1 parts of fipronil and which contained 0.03 parts of fipronil, uniformly mixing same was used as a test agent solution of a comparative example.
As the imidacloprid formulation and the fipronil formulation, commercially available termite controlling agents were used and diluted solutions at practical agent concentrations thereof were used as test agent solutions.
Gypsum was cured and spread in a glass petri dish having a diameter of 90 mm, 15 ml of each of the test agent solution of the example and the test agent solution of the comparative example was uniformly dropped on the entire surface of the gypsum. Thereafter, ten workers of Coptotermes formosanus Shiraki were released into the petri dish and the petri dish was covered and left to stand in a thermostatic chamber (25° C./relative humidity 60%).
The number of abnormal termites and the number of dead termites among the released termites (Coptotermes formosanus Shiraki) were observed every one hour from immediately after the release of the termites (Coptotermes formosanus Shiraki) until ten hours passed and the total number of the abnormal termite rate and the dead termite rate was calculated as the abnormal or dead termite rate (%) according to [Expression 1] below and the rates of expression of the effects of the respective agents were compared. Each test agent was prepared in one petri dish as one plot and the test was carried out in two replicates.

Compound	Abnormal or dead termite rate (%) ([2]; after 1 day)	Abnormal or dead termite rate (%) ([2]; after 3 days)	Abnormal or dead termite rate (%) ([2]; after 7 days)	Abnormal or dead termite rate (%) ([2]; after 14 days)	Abnormal or dead termite rate (%) ([2]; after 21 days)	Abnormal or dead termite rate (%) ([3]; after 1 day)	Abnormal or dead termite rate (%) ([3]; after 3 days)	Abnormal or dead termite rate (%) ([3]; after 7 days)	Abnormal or dead termite rate (%) ([3]; after 14 days)	Abnormal or dead termite rate (%) ([3]; after 21 days)	Abnormal or dead termite rate (%) ([4]; time elapsed 1 h)	Abnormal or dead termite rate (%) ([4]; time elapsed 2 h)	Abnormal or dead termite rate (%) ([4]; time elapsed 3 h)	Abnormal or dead termite rate (%) ([4]; time elapsed 4 h)	Abnormal or dead termite rate (%) ([4]; time elapsed 5 h)	Abnormal or dead termite rate (%) ([4]; time elapsed 6 h)	Abnormal or dead termite rate (%) ([4]; time elapsed 7 h)	Abnormal or dead termite rate (%) ([4]; time elapsed 8 h)	Abnormal or dead termite rate (%) ([4]; time elapsed 9 h)	Abnormal or dead termite rate (%) ([4]; time elapsed 10 h)	further results
N#Cc1nn(-c2c(Cl)cc(C(F)(F)F)cc2Cl)c(N)c1[S+]([O-])C(F)(F)F (stereo not drawn) [Fipronil]	0%	0%	19%	30%	31%	82%	95%	100%	100%	100%	18%	36%	52%	100%	100%	100%	100%	100%	100%	100%	Abnormal or dead termite rate (%) ([1]; 1 h): 0%; Abnormal or dead termite rate (%) ([1]; 2 h): 5%; Abnormal or dead termite rate (%) ([1]; 3 h): 50%; Abnormal or dead termite rate (%) ([1]; 4 h): 95%; Abnormal or dead termite rate (%) ([1]; 5 h): 95%; Abnormal or dead termite rate (%) ([1]; 6 h): 100%; Abnormal or dead termite rate (%) ([1]; 7 h): 100%; Abnormal or dead termite rate (%) ([1]; 1 day): 100%; Abnormal or dead termite rate (%) ([1]; 2 days): 100%; Abnormal or dead termite rate (%) ([1]; 3 days): 100%; Abnormal or dead termite rate (%) ([1]; 7 days): 100%
O=[N+]([O-])NC1=NCCN1Cc1ccc(Cl)nc1 [Imidacloprid]	0%	1.1%	1.1%	1.1%	1.2%	92%	22%	11%	14%	15%	100%	100%	100%	100%	100%	100%	100%	100%	100%	100%	–
